Eight compounds from ChEMBL document CHEMBL3425445, “Synthesis, crystal structure and biological evaluation of substituted quinazolinone benzoates as novel antituberculosis agents targeting acetohydroxyacid synthase” (Eur J Med Chem, 2015) can be followed below.

≈ marks a conversion by molar mass, not a printed value. Bounds are passed on as bounds.

As a reminder, the inhibition is the drop in the measured response relative to a control, in per cent. As a reminder, the MIC is the smallest concentration in the dilution series that meets the test's criterion for growth inhibition.

What all share (assay type): functional
Assay [1] concerns Mycobacterium tuberculosis. Nature of the assay: Antitubercular activity against rifampin, isoniazid and streptomycin-resistant Mycobacterium tuberculosis infected in human THP-1 cells assessed as inhibition of intracellular activity at 20 mg/L after 4 days. The conditions noted are these: THP-1, 96 h.
Assay [2] deals with Mycobacterium tuberculosis. Briefly: Antitubercular activity against isoniazid-resistant Mycobacterium tuberculosis infected in human THP-1 cells assessed as inhibition of intracellular activity at 20 mg/L after 4 days. The conditions noted are these: THP-1, 96 h.
Assay [3] relates to Mycobacterium tuberculosis. Briefly: Antitubercular activity against rifampin, isoniazid and ethambutol-resistant Mycobacterium tuberculosis infected in human THP-1 cells assessed as inhibition of intracellular activity at 20 mg/L after 4 days. The settings on record: THP-1, 96 h.
Assay [4] deals with Mycobacterium tuberculosis. Nature of the assay: Antitubercular activity against rifampin, isoniazid and ethambutol-resistant Mycobacterium tuberculosis assessed as inhibition of bacterial growth after 4 weeks by two-fold dilution technique. The settings on record: 672 h.
In assay [5] the test system is Mycobacterium tuberculosis. Nature of the assay: Antitubercular activity against rifampin, isoniazid, kanamycin and ofloxacin-resistant Mycobacterium tuberculosis infected in human THP-1 cells assessed as inhibition of intracellular activity at 10 mg/L after 4 days. The conditions noted are these: THP-1, 96 h.
Assay [6] concerns Mycobacterium tuberculosis. Nature of the assay: Antitubercular activity against isoniazid-resistant Mycobacterium tuberculosis infected in human THP-1 cells assessed as inhibition of intracellular activity at 10 mg/L after 4 days. The settings on record: THP-1, 96 h.
The test system of assay [7] is Mycobacterium tuberculosis. Nature of the assay: Antitubercular activity against isoniazid-resistant Mycobacterium tuberculosis assessed as inhibition of bacterial growth after 4 weeks by two-fold dilution technique. The settings on record: 672 h.
For assay [8], the system named is Mycobacterium tuberculosis. Nature of the assay: Antitubercular activity against rifampin, isoniazid and streptomycin-resistant Mycobacterium tuberculosis infected in human THP-1 cells assessed as inhibition of intracellular activity at 10 mg/L after 4 days. The settings on record: THP-1, 96 h.
For assay [9], the system named is Mycobacterium tuberculosis. Briefly: Antitubercular activity against rifampin and isoniazid-resistant Mycobacterium tuberculosis assessed as inhibition of bacterial growth after 4 weeks by two-fold dilution technique. The settings on record: 672 h.
Assay [10] deals with Mycobacterium tuberculosis. Briefly: Antitubercular activity against rifampin, isoniazid and streptomycin-resistant Mycobacterium tuberculosis assessed as inhibition of bacterial growth after 4 weeks by two-fold dilution technique. The conditions noted are these: 672 h.
Assay [11] concerns Mycobacterium tuberculosis. Nature of the assay: Antitubercular activity against rifampin, isoniazid and ethambutol-resistant Mycobacterium tuberculosis infected in human THP-1 cells assessed as inhibition of intracellular activity at 10 mg/L after 4 days. The conditions noted are these: THP-1, 96 h.
Assay [12] concerns Mycobacterium tuberculosis. Briefly: Antitubercular activity against rifampin, isoniazid, kanamycin and ofloxacin-resistant Mycobacterium tuberculosis infected in human THP-1 cells assessed as inhibition of intracellular activity at 20 mg/L after 4 days. The settings on record: THP-1, 96 h.
For assay [13], the system named is Mycobacterium tuberculosis. Briefly: Antitubercular activity against rifampin, isoniazid, amikacin and ofloxacin-resistant Mycobacterium tuberculosis assessed as inhibition of bacterial growth after 4 weeks by two-fold dilution technique. The settings on record: 672 h.
Assay [14] relates to Mycobacterium tuberculosis. Briefly: Antitubercular activity against rifampin, isoniazid, amikacin and ofloxacin-resistant Mycobacterium tuberculosis infected in human THP-1 cells assessed as inhibition of intracellular activity at 10 mg/L after 4 days. The conditions noted are these: THP-1, 96 h.
Assay [15] has as its system Mycobacterium tuberculosis. Briefly: Antitubercular activity against rifampin, isoniazid, kanamycin and ofloxacin-resistant Mycobacterium tuberculosis assessed as inhibition of bacterial growth after 4 weeks by two-fold dilution technique. The settings on record: 672 h.
In assay [16] the test system is Mycobacterium tuberculosis. Nature of the assay: Antitubercular activity against rifampin and isoniazid-resistant Mycobacterium tuberculosis infected in human THP-1 cells assessed as inhibition of intracellular activity at 20 mg/L after 4 days. The settings on record: THP-1, 96 h.
The test system of assay [17] is Mycobacterium tuberculosis. Nature of the assay: Antitubercular activity against rifampin and isoniazid-resistant Mycobacterium tuberculosis infected in human THP-1 cells assessed as inhibition of intracellular activity at 10 mg/L after 4 days. The settings on record: THP-1, 96 h.
In assay [18] the test system is Mycobacterium tuberculosis. Briefly: Antitubercular activity against rifampin, isoniazid, amikacin and ofloxacin-resistant Mycobacterium tuberculosis infected in human THP-1 cells assessed as inhibition of intracellular activity at 20 mg/L after 4 days. The conditions noted are these: THP-1, 96 h.

On to `COC(=O)c1ccccc1S(=O)(=O)NC(=O)Nc1nc(C)cc(C)n1` [SULFOMETURON METHYL], for which the inhibition at 20 µg/mL in assay [1] turned out to be 36.2%; in [2], 35.6%; in assay [3], 35%; in assay [12], 36%; in assay [16] it was 34.4%; in [18], 31.8%. In addition, the minimum inhibitory concentration (MIC) in assay [4], in [7], in assay [9], in assay [10], in assay [13] and in [15] was 10 µg/mL (≈ 27.4 µM) throughout. Further, the inhibition at 10 µg/mL in [5] came out at 18.8%; in [6] it was 17.8%; in assay [8], 18.5%; in assay [11], 17%; in assay [14], 15%; in [17], 16.2%.
Consider `O=C(On1c(-c2ccccc2)nc2ccccc2c1=O)c1cccc(Cl)c1`, for which the MIC in [4], in assay [7], in [9], in [10], in assay [13] and in assay [15] was 5 µg/mL (≈ 13.3 µM) each time.
Regarding `COc1cccc(-c2nc3ccccc3c(=O)n2OC(=O)c2cccc([N+](=O)[O-])c2)c1`, the MIC in assay [4], in assay [7], in assay [9], in [10], in assay [13] and in [15] was 5 µg/mL (≈ 12 µM) in each case.
`O=C(On1c(-c2cccc(F)c2)nc2ccccc2c1=O)c1cccc(F)c1`: the inhibition at 20 µg/mL is 53.4% in assay [1]; 51.3% in assay [2]; 50.4% in assay [3]; 52.2% in assay [12]; 47.5% in assay [16]; 46.2% in [18]. The MIC in [4], in assay [7], in assay [9], in assay [10], in assay [13] and in assay [15] was 2.5 µg/mL (≈ 6.61 µM) each time. Moreover, the inhibition at 10 µg/mL in assay [5] was found to be 26%; in [6], 25.5%; in assay [8], 26.2%; in assay [11] it was 24.2%; in [14], 22.8%; in assay [17] it was 22.6%.
Regarding `COc1cccc(-c2nc3ccccc3c(=O)n2OC(=O)c2cccc(C(F)(F)F)c2)c1`, the minimum inhibitory concentration (MIC) in [4], in assay [7], in [9], in [10], in assay [13] and in assay [15] was 10 µg/mL (≈ 22.7 µM) throughout.
With `O=C(On1c(-c2ccccc2)nc2ccccc2c1=O)c1cccc([N+](=O)[O-])c1`, the MIC in assay [4], in assay [7], in assay [9], in [10], in [13] and in assay [15] was 5 µg/mL (≈ 12.9 µM) each time.
On to `NNC(=O)c1ccncc1` [ISONIAZID], for which the MIC in assay [4], in assay [7], in assay [9], in [10], in assay [13] and in assay [15] was greater than 8 µg/mL each time.
As to `CO[C@H]1/C=C/O[C@@]2(C)Oc3c(C)c(O)c4c(O)c(c(/C=N/N5CCN(C)CC5)c(O)c4c3C2=O)NC(=O)/C(C)=C\C=C\[C@H](C)[C@H](O)[C@@H](C)[C@@H](O)[C@@H](C)[C@H](OC(C)=O)[C@@H]1C` [RIFAMPIN], the MIC in assay [4] is greater than 8 µg/mL; in [7], 0.4 µg/mL (≈ 0.486 µM); in assay [9], greater than 8 µg/mL; in assay [10] it was greater than 8 µg/mL; in assay [13] it was greater than 8 µg/mL; in [15], greater than 8 µg/mL.
